The results in this text go back to patent US7888382B2, “Combined pharmaceutical preparation for treatment of type 2 diabetes” (Kissei Pharmaceutical Co., Ltd., priority 2005, dated 2011).

Where two headings read alike, the source gives them in different places.

Series [1] deals with patients with type 2 diabetes. Conditions: human, in vivo. The protocol: Clinical trials as follows were performed with double-blind, parallel group trial on patients with type 2 diabetes.
Type 2 diabetic patients of at least 20 years old whose blood glucose could not be sufficiently controlled by a dietary therapy and who requires introduction of medication and has HbA1C of at least 6.5% and less than 8.5%.
(1) 5 mg tablet of mitiglinide calcium hydrate (hereafter also referred to as “KAD-1229”)
(2) placebo tablet of KAD-1229 5 mg tablet
(4) placebo tablet of KAD-1229 10 mg tablet
(5) 0.2 mg tablet of voglibose
(6) placebo tablet of voglibose 0.2 mg tablet
(Method of Administration)
A 0.2 mg tablet of voglibose was orally administered 3 times a day immediately before every meal (within 5 minutes before eating) for 16 weeks (an observation period: a non-blind trial period). Thereafter, investigational drugs distributed as Table 1 were orally administered 3 times a day immediately before every meal (within 5 minutes before eating) for 12 weeks (a treatment period: a double-blind trial period). Administration of the investigational drugs after meal was not allowed, and administration was not performed when the meal was not taken.
The following items were assessed during and after the period of administration.

In another series the test system is Male Wistar rats. The series is described as follows: Oral sucrose tolerance test. The series is classed as in vivo, rat. To be noted: in combination with voglibose, sucrose 2.5 g/kg, compared to nateglinide or repaglinide, FIG. 11. The protocol: Male Wistar rats purchased from Japan SLC, Inc. were used in this test.
An oral sucrose tolerance test was performed using 7-week-old rats.
The rats were fasted for at least 16 hours and received oral administration of 2.5 mL/kg of a prepared tested substance or a vehicle (0.5% CMC solution), followed by oral administration of 5 mL/kg of 0.5 g/mL sucrose solution (2.5 g/kg). Blood was drawn from a rat tail vein immediately before administration and 0.25 and 0.5 hours after loading. A plasma glucose concentration was measured using a Glucose CII-test Wako (Wako Pure Chemical Industries, Ltd.).
A dose of the tested substance was converted from a usual dose of each drug for a type 2 diabetic patient (mitiglinide: 10 mg, nateglinide: 120 mg, repaglinide: 1 mg). As for nateglinide, a converted value of 12 mg was changed to 20 mg to be set as a dose, considering an effect thereof.
An area under the plasma glucose concentration-time curve from a time before sucrose loading to 0.5 hours after sucrose loading (AUC0-0.5 hr) was set as an assessment item. Blood glucose AUC0-0.5 hr was calculated from plasma glucose concentrations with a trapezoidal rule using the area under the plasma glucose concentration-time curve.
Excel (Microsoft Corp.) and GraphPad Prism 3.0 (GraphPad Software Inc.) were used to aggregate and calculate data, to make diagrams and the like. […]

Regarding `OCC(CO)N[C@H]1C[C@](O)(CO)[C@@H](O)[C@H](O)[C@H]1O` [Comparative Example 1, voglibose], in series [1] (12 weeks), the “Incidence rate of gastrointestinal disorders” value is listed as 10.1% and the “Incidence rate of hypoglycemic symptoms” value was found to be 1.1%.
On to `O.O.O=C([O-])[C@H](CC(=O)N1C[C@H]2CCCC[C@H]2C1)Cc1ccccc1.O=C([O-])[C@H](CC(=O)N1C[C@H]2CCCC[C@H]2C1)Cc1ccccc1.[Ca+2]` [Comparative Example 2, mitiglinide calcium hydrate], for which, in series [1], the “Incidence rate of gastrointestinal disorders” value turned out to be 6.8% and the “Incidence rate of hypoglycemic symptoms” value is listed as 3.9%. The “blood glucose decreasing effect (blood glucose AUC0-0.5 hr)” value in the series on Male Wistar rats is “strong blood glucose decreasing effect within a very short time”.
